Measurements from patent publication US11737955B2, “Multi-functional micro and nanoparticles for use in root canal therapies” (THE GOVERNING COUNCIL OF THE UNIVERSITY OF TORONTO, priority 2012, dated 2023).

Legend:
[1] = tested on: E. faecalis biofilm; experiment: Uptake of photosensitizers by E. faecalis biofilm; format: cell-based, E. faecalis (ATCC 29212); details: 15 min incubation, 7 day old biofilm
Experimental: The uptake of Rose Bengal, methylene blue and chitosan polymer-Rose Bengal nanoparticles was evaluated on biofilm forms of E. faecalis. A seven day old biofilm of E. faecalis (ATCC 29212) was grown in 24 multi-well plates. 1 mL of overnight E. faecalis culture was added into each well of the multi-well plates and incubated at 37° C., 100 rpm. Fresh media was replenished every 48 hours to provide a constant supply of nutrients and to remove dead bacterial cells. On the eighth day, the media was removed from the wells, and the biofilm was carefully washed once with sterile deionized-water. Different concentrations of chitosan polymer-Rose Bengal nanoparticles (0.3, 0.5 & 1 mg/mL) and MB and Rose Bengal (10, 25, 50 & […]) were added to the biofilm and incubated at 37° C. for 15 min, protected from ambient light. Three samples were used for each concentration. Excess photosensitizer solutions were removed leaving behind the bound Rose Bengal, MB and chitosan polymer-Rose Bengal nanoparticles in biofilm and washed once. The biofilm bacteria were treated with 1 mL of 2% SDS for 20 h in order to extract the cell-bound photosensitizers. The biofilms were disrupted and collected in eppendorf tubes. The biofilm bacteria were centrifuged (3000 rpm, 10 min) and the supernatant solution was taken for photosensitizer quantification. Quantification of photosensitizer was done spectrophotometrically (Epoch, Biotek, USA) at the absorption maxima of the Rose Bengal (540 nm). Calibration curves were constructed for each Rose Bengal in 2% SDS. Uptake values were obtained as the total Rose Bengal and MB concentrations (μM) extracted from both the 1 mL of planktonic and biofilm bacteria.

[2] = tested on: planktonic E. faecalis; experiment: Membrane integrity of planktonic bacteria (release of cell constituents, OD260); format: cell-based, E. faecalis (ATCC 29212); details: following photodynamic therapy, 5 J/cm^2, 540 nm
Experimental: Leakage of cytoplasmic contents (DNA) is a characteristic indication of damage to the bacterial cytoplasmic membrane. Absorbance at 260 nm was used to estimate the amount of intracellular contents leaked from bacteria subjected to different photosensitizers and photodynamic therapy. E. faecalis (ATCC 29212) was incubated overnight at 37° C. under agitation in the Brain-Heart Infusion (BHI) medium (Sigma, USA). The culture was centrifuged (4000 rpm, 10 min, 4° C.), supernatants discarded and washed twice in sterile deionized water (DIW). The cells were resuspended in deionized water and adjusted to 10^7 CFU/mL (optical density 0.7) at 600 nm. The cell suspension (1 mL) was then added into eppendorf tubes and centrifuged. The supernatants were discarded and the cell pellets were treated with different photosensitizer solutions and maintained at 37° C. for 15 min, protected from ambient light. The kinetics of release of intracellular contents, treated bacterial cells were filtered (0.2 μm pore size, Pall) and absorbance of the filtrate recorded at 260 nm (OD260). For photodynamic therapy, the photosensitized cells were centrifuged and cell pellets irradiated (5 J/cm^2, 540 nm). The % change in OD260 at 15 min post sensitization and after irradiation with 5 J/cm^2 was calculated with respect to the OD260 of the sample measured at 0 min.

[3] = tested on: NIH 3T3 mouse fibroblast cells; experiment: Cytotoxicity, MTT assay with and without photodynamic therapy; format: cell-based
Experimental: To evaluate cytotoxicity approximately 1×10^5 NIH 3T3 mouse fibroblast cells (American Type Culture Collection CCL 1, Rockville, Md.) were seeded into 24 well plates in Dulbecco's Modified Eagle medium (DMEM) supplemented with 10% Bovine Serum and antibiotics and incubated for 48 hrs in 5% CO2 incubator (Thermo Electron Corporation, USA). After incubation, chitosan polymer-Rose Bengal nanoparticles and Rose Bengal dissolved in DMEM were added into the cells and incubated for 15 min in dark. The cells were irradiated with a white light source and a 540 nm fiber (Lumacare Inc) for a total dose of 20 J/cm^2. Rose Bengal and chitosan polymer-Rose Bengal nanoparticles were also tested without irradiation. […]
The supernatant media was removed without disturbing the cell line, and the cell layer was washed with 1 mL of phosphate-buffered saline. Cell survival was determined by the standard 3-(4, 5-dimethylthiazol-2-yl)-2, 5-diphenyltetrazolium bromide (MTT) assay (Sigma Aldrich) that determines the mitochondrial activity. […] The absorbance at 540 nm was measured photometrically by using a UV-visible spectrophotometer (Epoch, Biotek, USA). Percentage survival was calculated based on control sample without any treatment as 100%. All analyses were repeated three times in triplicate, and the statistical significance was analyzed by one-way analysis of variance.

[4] = tested on: E. faecalis biofilm; experiment: Biofilm structure by confocal laser scanning microscopy; format: cell-based, E. faecalis (ATCC 29212)
Experimental: The structure of the 7-days old biofilm following treatment with nanoparticulates was assessed using confocal-laser-scanning-microscopy (CLSM). E. faecalis (ATCC 29212) biofilm was grown on a glass bottom culture dishes. Following treatment with Rose Bengal (10 μM) and chitosan polymer-Rose Bengal nanoparticles (0.3 mg/mL) the as mentioned above, biofilms were washed with 1 mL of sterile deionized-water. The biofilms were then stained with 200 μL, of Live/Dead® Baclight™ stain (Molecular Probes, Eugene, Oreg.) and incubated in the dark for 10 minutes. The biofilm-structures were then viewed under spinning disk confocal-laser-scanning microscopy (Olympus, Japan). Kr/Ar laser was the source of illumination with 488 nm excitation and long-pass 500-523 nm and 622-722 nm emission filter settings for green and red signals respectively. Nine different areas were imaged from each sample using a 60× oil objective. The optical sections of the biofilm-structure were first recorded then subsequently analyzed using Velocity® software. Student t-test was used to compare the thickness of the biofilm before and after nanoparticulates treatment.

[5] = tested on: E. faecalis biofilm; experiment: Antibacterial efficacy on 7-days old biofilm (CFU count); format: cell-based, E. faecalis (ATCC 29212)
Experimental: In order to test the antibacterial-efficacy of nanoparticulates on bacterial-biofilm, 7-days old biofilm of E. faecalis (ATCC 29212) was grown in well of multiwell-plates as mentioned above. On the eighth day, the media was removed from the wells, and the biofilm was carefully washed once with sterile deionized-water. The biofilm-bacteria was treated with chitosan polymer-Rose Bengal nanoparticles and Rose Bengal and exposed to photodynamic therapy with different doses. Sensitization was done using 1 mL of Rose Bengal (10 μM) and chitosan polymer-Rose Bengal nanoparticles (0.1 & 0.3 mg/mL) at 37° C. for 15 min, protected from ambient light. Subsequently, the excess photosensitizer solutions were removed leaving behind the bound chitosan polymer-Rose Bengal nanoparticles and Rose Bengal. Dark toxicity was evaluated after sensitization period with the two treatment solutions. In case of photodynamic therapy, the sensitized biofilm-bacteria were irradiated using a 540 nm fiber with dosage of 20, 40 and 60 J/cm^2; and fractionated dosage of 10 and 20 J/cm^2 twice. After treatment, the biofilms were washed gently and 1 mL of sterile deionized-water was added. […] Colonies were counted after 24 hours of incubation at 37° C. and expressed as log colony forming units (CFU) per mL. The experiments were carried out in triplicates and the mean values were calculated.

[6] = tested on: planktonic E. faecalis; experiment: Antibacterial efficacy on planktonic bacteria (CFU count); format: cell-based, E. faecalis (ATCC 29212); details: 540 nm, 15 min sensitization
Experimental: E. faecalis (ATCC 29212) was used to test the antibacterial efficacy of Rose Bengal and chitosan polymer-Rose Bengal nanoparticles in both planktonic and biofilm forms. Planktonic cell pellets (10^9 cells/mL) were obtained and the cell pellets treated with 1 mL of Rose Bengal (10 μM) and chitosan polymer-Rose Bengal nanoparticles (0.1 & 0.3 mg/mL), at 37° C. for 15 min, in the manner previously described and protected from ambient light to allow sensitization. Dark toxicity was evaluated after 15 min of sensitization with the two treatment solutions. In the case of photodynamic therapy, the photosensitizer solutions were removed leaving a thin smear at the bottom of the eppendorf tubes. The sensitized planktonic-bacteria were irradiated using a 540 nm fiber with doses of 2 and 5 J/cm^2. After treatment, cell pellets were resuspended in sterile deionized-water (1 mL) and 100 μL of the suspension was plated in freshly poured BHI agar plates after serial dilution. Colonies were counted after 24 hours of incubation at 37° C. and expressed as log colony forming units (CFU) per mL.

SMILES | Biofilm E. faecalis photosensitizer uptake/mL of cells ([1]; photosensitizer 10 μM) [µM] | Biofilm E. faecalis photosensitizer uptake/mL of cells ([1]; photosensitizer 25 μM) [µM] | Biofilm E. faecalis photosensitizer uptake/mL of cells ([1]; photosensitizer 50 μM) [µM] | Biofilm E. faecalis photosensitizer uptake/mL of cells ([1]; photosensitizer 100 μM) [µM] | release of cell constituents (absorbance at 260 nm) [2] | cell survival after photodynamic therapy ([3]; NIH 3T3, 540 nm, 20 J/cm^2) | dark toxicity ([3]; NIH 3T3, 15 min exposure, no irradiation) | biofilm architecture ([4]; after PD treatment (irradiation)) | thickness of the biofilm ([4]; after PD treatment, Rose Bengal 10 μM, CSRBnp 0.3 mg/mL, untreated 39.2±7.3) [µm] | elimination of biofilm bacteria ([5]; fractionated photodynamic therapy, CSRBnp 0.3 mg/mL, Rose Bengal 10 μM) | killing of biofilm-bacteria ([5]; photodynamic therapy at 60 J/cm^2) | light dose giving complete planktonic bacterial killing [6] [J/cm^2]
CN(C)c1ccc2nc3ccc(=[N+](C)C)cc-3sc2c1 [MB, methylene blue] | 0.96 ± 0.07 | 1.75 ± 0.21 | 3.15 ± 0.16 | 5.07 ± 0.19 |  |  |  |  |  |  |  | 
O=C1OC2(c3cc(I)c(O)c(I)c3Oc3c2cc(I)c(O)c3I)c2c(Cl)c(Cl)c(Cl)c(Cl)c21 [RB, Rose Bengal] | 2.72 ± 0.15 | 2.80 ± 0.09 | 3.01 ± 0.11 | 3.68 ± 0.17 | increased absorbance at 260 nm | further reduction of cell survival | higher dark toxicity | not disrupted | 21.5 ± 9.57 | not with Rose Bengal | did not show complete killing | 5
